Measured values published in article PMC11251039, “Harnessing cholesterol uptake of malaria parasites for therapeutic applications” (EMBO Molecular Medicine, 2024).
Values joined by “and” are separate entries in the source; they are usually repeats but may differ in a detail not shown here. Equal entries are not always repeated.

Columns and labels:
[1] = test system: P. falciparum stage V gametocytes; experiment: P. falciparum gametocyte viability assay (MitoTracker, flow cytometry), stage V; format: cell-based, Plasmodium falciparum; details: 48 h; for Gametocyte stage V viability, percentage of control: listed as BC9B
Description: (§1) Gametocyte assays commenced seven days (stage III–IV) or ten days (stage V) post-invasion. […]
(§2) Plasmodium falciparum Gametocyte Viability Assays:
(§3) Asexual P. falciparum parasites were induced to form gametocytes as described (21).
(§4) Synchronized trophozoite-stage parasites at 2% parasitaemia were incubated overnight and […]
(§5) haematocrit maintained at 4%. On the subsequent day (designated as day 0) of gametocytogenesis, the culture containing early ring-stage parasites was first purified by sorbitol synchronisation to remove asynchronous trophozoites, and passed through a magnetic field in a sterile MACS® column in a SuperMACSTM II magnet to remove remaining late-stage parasites or later-stage gametocytes (negative selection). The culture medium was supplemented with 50 mM N-acetyl-D-glucosamine to inhibit asexual parasite proliferation, and changed daily. Sorbitol treatment was performed on Day 1, 5, and 6 to further remove asexual parasites. Gametocytes were magnetically enriched (positive selection) in a sterile column with a SuperMACSTM II magnet and eluted in culture media with 50 mM N-acetyl-D-glucosamine. These gametocytes were incubated overnight at 37 °C under microaerophilic conditions, and purity was assessed by examination under a light microscope (400× […]
(§6) Gametocyte viability was assessed as described by Ridgway et al. (21) with modifications.
(§7) Compounds or solvent controls (DMSO) were serially diluted across 96-well plates in culture media supplemented with 50 mM N-acetyl-D-glucosamine. Culture media without compound was used as a negative control. […]
(§8) control to determine background gametocyte fluorescence. Stage III-IV gametocytes (Day 7) or stage V (day 10) gametocytes were concentrated and added to the plate with 200 µL per well. The plate was incubated for 48 hours at 37 °C under humid microaerophilic conditions.
(§9) Parasites were then stained with 500 nM MitoTrackerTM Deep Red FM and 5 μg/ml Hoechst […]
(§10) cytometer as described above. […]
(§11) excluded. Live (positive) and dead (negative) gametocytes were differentiated by […]
(§12) percentage of each was calculated. […]

[2] = test system: human foreskin fibroblasts (HFF); experiment: Human foreskin fibroblast growth inhibition assay (SYBR Safe); format: cell-based; details: Homo sapiens, Fibroblast; 72 h, HFF; read-out: IC50, human fibroblast growth inhibition
Description: HFF cell growth inhibition assays commenced by adding 5000 cells to each well of a 96-well plate. 10 µg/mL cycloheximide was used as a no-growth control. DNA replication (indicating growth) was measured at the specified time using SYBR Safe DNA Gel Stain (Invitrogen 33102) and a fluorescence microplate reader. […]
Human Foreskin Fibroblast Growth Inhibition Assays:
The HFF cell line was maintained under routine culture conditions in DMEM containing 3.7 g/L NaHCO3 supplemented with 10% v/v newborn calf serum (NCS), 50 units/mL penicillin, 50 μg/mL streptomycin, 10 μg/mL gentamicin, 0.25 μg/mL amphotericin B, and 0.2 mM L-glutamine at 37 °C in a humidified 5% CO2 incubator. […]
HFF cells were detached from a flask using 0.25% Trypsin with 0.2 g/L EDTA (Sigma T4049) and washed with culture media. Cells were incubated with a serial dilution of each compound, or media/DMSO alone. Cycloheximide at 10 µg/mL was used as a positive control to determine background fluorescence. Approximately 5 000 cells were seeded in each well. Plates were incubated at 37 °C for 72 hours (until reaching confluency) and the media was removed. Plates were transferred to a -18 °C freezer. Plates were thawed and SYBR Safe DNA Gel Stain (final concentration 1/10,000) diluted in lysis buffer (as above) was added. Fluorescence was read at 490 nm excitation/ 520 nm emission on a FLUOstar Optima fluorescence plate reader. […]

[3] = test system: P. falciparum stage III–IV gametocytes; experiment: P. falciparum gametocyte viability assay (MitoTracker, flow cytometry), stage III-IV; format: cell-based, Plasmodium falciparum; details: 48 h; for Gametocyte stage III-IV viability, percentage of control: listed as BC9B
Description: as §1, §2, §3, §4, §5, §6, §7, §8, §9, §10, §11, §12

[4] = test system: human hepatoma cells (Huh7); experiment: Human hepatoma viability assay (CellTiter-Blue); format: cell-based; details: for Huh7 viability, dose-response data points (Figure 3F): replicate data points, listed as BC9B
Description: Huh7 hepatoma viability assays were conducted in the same manner as the P. berghei assays, with metabolic capacity (indicating viability) measured with a fluorescence microplate reader after incubation with CellTiter-Blue® (Promega) for 3 h.
Appendix Fraser/Curtis et al. […]
Human Hepatoma Viability Assays:
The Huh7 hepatoma cell line (ATCC) was maintained under routine culture conditions in Dulbecco's Modified Eagle Medium (DMEM) containing 3.7 g/L NaHCO3 supplemented with 10% foetal bovine serum (FBS), 100 units/mL penicillin, and 100 μg/mL streptomycin at 37 °C in a humidified 5% CO2 incubator.
Viability assays were performed in parallel to the P. berghei growth inhibition. 10,000 Huh7 cells were seeded in 96-well and dark-sided microplates (Greiner Bio One) and cultured at 37°C, 5% CO2 and 80% humidity. The next day, the media was replaced with compounds or solvent controls (DMSO) serially diluted in culture media. Media was partially replaced with new drug dilutions over the following two days. After 48 hours, CellTiter-Blue® (Promega) was added according to the manufacturer’s instructions and incubated for 3 hours. Fluorescence intensity was measured with 530/25 ex and 590/20 em in a Synergy HTX plate reader (Agilent).

In the case of `COc1cc(NC(C)CCCNC(=O)CCC(=O)OC(C)C)c2ncccc2c1` (stereo not shown) [PQ-link], the “Gametocyte stage V viability, percentage of control” value ([1]; 50.000000000 uM, replicate values, source data Fig. 2D) is reported as 66.98% and 63.41% and 52.55% and 74.37% and 69.92% and 70.17%, the “Gametocyte stage V viability, percentage of control” value ([1]; 100.000000000 uM, replicate values, source data Fig. 2D) is reported as 11.39% (2×) and 9.662% and 17.36% and 16.33% and 21.17% and 48.62% and 50.63% and 48.77% and the “Gametocyte stage V viability, percentage of control” value ([1]; 200.000000000 uM, replicate values, source data Fig. 2D) is reported as -1.011% and -1.165% and -0.9342% and -0.2117% and -0.2822% and -0.3175% and 0.4794% and 0.8647% and 0.8741%. It also gave a viability at 6.25 µM ([1]; Plasmodium falciparum, 6.250000000 uM, replicate values, source data Fig. 2D, read-out: Gametocyte stage V viability, percentage of control) of 103%, a viability at 12.5 µM ([1]; Plasmodium falciparum, 12.500000000 uM, replicate values, source data Fig. 2D, read-out: Gametocyte stage V viability, percentage of control) of 104% and a viability at 25 µM ([1]; Plasmodium falciparum, 25.000000000 uM, replicate values, source data Fig. 2D, read-out: Gametocyte stage V viability, percentage of control) of 87.6%. The IC50 ([1]; Plasmodium falciparum, read-out: IC50, P. falciparum gametocyte stage V inhibition) was 70.5 µM, the IC50 [2] was 98.2 µM and the “Gametocyte stage III-IV viability, percentage of control” value ([3]; 3.125000000 uM, replicate values, source data Fig. 2C, 3.125 µM) was 95.52% (2×) and 103.7% and 98.94% and 103.3% and 102% and 98.19% and 98.79% and 101.3% and 100.5% and 109.4%. The “Gametocyte stage III-IV viability, percentage of control” value ([3]; 6.250000000 uM, replicate values, source data Fig. 2C, 6.25 µM) was 103.3% and 99.89% and 101.1% and 100.9% and 104.1% and 103.4% and 100.6% and 98.59% and 102.7% and 100.3% and 94.88%, the “Gametocyte stage III-IV viability, percentage of control” value ([3]; 12.500000000 uM, replicate values, source data Fig. 2C, 12.5 µM) was 96% and 94.38% and 101.5% and 100.5% and 100.7% and 100.4% and 98.39% (2×) and 102.7% and 98.65% and 95.96% and the “Gametocyte stage III-IV viability, percentage of control” value ([3]; 25.000000000 uM, replicate values, source data Fig. 2C) was 93.41% and 97.62% and 99.34% and 95.75% and 97.14% and 99.2% and 97.59% and 96.58% and 96.77% and 92.46% and 91.11%. For the same compound, the “Gametocyte stage III-IV viability, percentage of control” value ([3]; 50.000000000 uM, replicate values, source data Fig. 2C) was 83.69% and 82.72% and 92.56% and 88.38% and 90.37% and 90.15% and 87.94% (2×) and 83.57% and 86.8% and 83.3%, the “Gametocyte stage III-IV viability, percentage of control” value ([3]; 100.000000000 uM, replicate values, source data Fig. 2C) was 63.1% and 60.41% and 65.29% and 78% and 74.98% and 78.2% and 65.68% and 65.48% and 64.86% and 59.49% and 56.77% and 63.58% and the “Gametocyte stage III-IV viability, percentage of control” value ([3]; 200.000000000 uM, replicate values, source data Fig. 2C) was 0.3329% and -3.262% and -3.462% and -33.89% and -33.85% and -34.28% and -34.3% and -33.84% and -35.23%. The viability at 3.125 µM ([3]; Plasmodium falciparum, 3.125000000 uM, replicate values, source data Fig. 2C, read-out: Gametocyte stage III-IV viability, percentage of control) was 97.8%, the viability at 6.25 µM ([3]; Plasmodium falciparum, 6.250000000 uM, replicate values, source data Fig. 2C, read-out: Gametocyte stage III-IV viability, percentage of control) was 100% and the viability at 12.5 µM ([3]; Plasmodium falciparum, 12.500000000 uM, replicate values, source data Fig. 2C, read-out: Gametocyte stage III-IV viability, percentage of control) was 94.9%. The viability at 25 µM ([3]; Plasmodium falciparum, 25.000000000 uM, replicate values, source data Fig. 2C, read-out: Gametocyte stage III-IV viability, percentage of control) was 92.1%, the viability at 50 µM ([3]; Plasmodium falciparum, 50.000000000 uM, replicate values, source data Fig. 2C, read-out: Gametocyte stage III-IV viability, percentage of control) was 82.6% and the IC50 ([3]; Plasmodium falciparum, read-out: IC50, P. falciparum gametocyte stage III-IV inhibition) was 103 µM. The “Huh7 viability, dose-response data points (Figure 3F)” value (“Huh7 viability” below) ([4]; 0.015241580 uM, 0.0152416 µM) was 107.3 and 97.91 and 99.21 and 88.27 and 85.99 and 85.17 and 77.48 and 99.67 and 102.9, the “Huh7 viability” value ([4]; 0.045724740 uM, 0.0457247 µM) was 101.4 (2×) and 102.9 and 96.11 and 84.48 and 82.6 and 86.76 and 77.19 and 99.77 and the “Huh7 viability” value ([4]; 0.137174210 uM, 0.137174 µM) was 100.3 and 97.53 and 89.5 and 87.16 and 86.15 and 91.05 and 98.93 and 94.82. For the same compound, the “Huh7 viability” value ([4]; 0.411522630 uM, 0.411523 µM) was 98.17 and 99.16 and 96.93 and 83.82 and 84.25 and 87.07 and 70.92 and 100.4 and 90.7, the “Huh7 viability” value ([4]; 1.234567900 uM, 1.23457 µM) was 106.4 and 97.98 and 99.19 and 82.25 and 86.23 and 90.4 and 72.24 and 83.96 and 96.58 and the “Huh7 viability” value ([4]; 3.703703700 uM, 3.7037 µM) was 96.27 and 98.44 and 90.47 and 77.12 and 78.19 and 82.37 and 76.62 and 90.94 and 92.11. The “Huh7 viability” value ([4]; 11.111111100 uM, 11.1111 µM) was 98.42 and 95.99 and 90.47 and 70.14 and 68.57 and 67.94 and 56.41 and 72.23 and 71.76, the “Huh7 viability” value ([4]; 33.333333300 uM, 33.3333 µM) was 79.4 and 75.47 and 83.67 and 39.88 and 39.61 and 43.08 and 30.62 and 36.38 and 34.72 and the “Huh7 viability” value ([4]; 100.000000000 uM) was 33.18 and 40.69 and 39.77 and 19.19 and 19.87 and 20.01 and 9.61 and 11.04 and 10.16. It also gave an IC50 ([4]; Homo sapiens, Huh-7, 48 h, Huh7, read-out: IC50, human hepatoma inhibition (viability)) of 32.8 µM.
